One assay deals with bean cv. Orfeo INIA. Nature of the assay: Weekly spraying of field-grown bean plants, effect on yield (pods/plant, seed/plant). Format: in vivo, Phaseolus vulgaris. The note with it: sprayed every week for two months until pod setting, NaNO2 at 200 μM, AsA at 100 μM, mixture AsA/NaNO2 at 100 μM/200 μM, control sprayed with water. Here is the method:
Plants of bean cv Orfeo INIA were grown in rows 80 cm apart and at a density of 10 plants/m, during the 2001 Southern Spring in the Experimental Station of the Univ. of Chile, Santiago. Plants were irrigated twice a week with abundant water in order to avoid water stress at any developmental stage. Phytosanitary, weed and fertilizer conditions of the plant was controlled as recommended for commercial crop.
One month old plants were sprayed every week for a two month period, until pod setting with: NaNO2 at 200 μM; AsA at 100 μM and a mixture of AsA/NaNO2 at […]. Control plants were sprayed with water.

A further assay has as its system grapevine cv Sultana. Nature of the assay: Spraying of dormant grapevine cuttings, onset of bud burst in growth chamber. Format: in vivo, Vitis vinifera L. The note with it: H2CN2 2.5% spray. As to the method: Cuttings of grapevine cv Sultana with three dormant buds each were collected from a vineyard located at Antumapu Experimental Station, University of Chile, by the end of May 2003 (Autumn South Hemisphere). After fungicide treatment, they were kept wrapped up with plastic for one week in a dark and cold chamber at 7° C. day/night. […] The number of buds burst was registered every day after the first bud was detected starting to growth. This moment was considered as the initiation of the bud burst.

`O=C1O[C@H]([C@@H](O)CO)C(O)=C1O` [AsA, ascorbic acid]: in the assay with bean cv. Orfeo INIA, the “yield (Number of pods/plant and Number of seed/plant)” value is given as “neither AsA or NaNO2 alone had any effect on yield”. `O=NO` [NaNO2, sodium nitrite]: the “yield (Number of pods/plant and Number of seed/plant)” value with bean cv. Orfeo INIA is “neither AsA or NaNO2 alone had any effect on yield”. On to `N#CN` [cyanamide], for which the “strength of effect on bud burst, AsA/NaNO2 compared with cyanamide” value with grapevine cv Sultana is “The effect was not as strong as with cyanamide”.

These data come from patent publication US20080318778A1, “Agriculture Composition Method Comprising Nitric Oxide Generating Agent” (University of Sheffield, priority 2004, published 2008).
